Key:
[1] = target: T1, His-eIF4E (Homo sapiens, UniProt P06730); assay: Binding assay by intrinsic fluorescence of His-eIF4E (negative control); details: negative control protein
T1 construct: His tag; made in house; host or cells: E. coli; purified by nickel agarose beads
Procedure: Binding assay—In order to measure binding of the indicated compound to Spt5 and/or Pol II; Spt5-Spt4 or Rpb1 fused to a histidine (His) tag were expressed in E. coli (SEQ ID Nos: 2-3, 5-6 and 81) and purified on nickel agarose beads as described in Ashkenazi et al. 2016. The proteins were incubated for 10 minutes with increasing concentrations of the indicated compound in a black 384 wells microplate in a total volume of 20 μl. Binding was assessed by measuring the changes in the intrinsic fluorescence (280 nm) using Cytation™ 5 (BioTek).
Direct interaction with either the Spt5 or the Rpb1 CC domain of SPI-21 and SPI-18 was further validated. His-Rpb1 and His-Spt5 (fused to Spt4 to increase its stability) and His-eIF4E, used as a negative control, were each expressed in E. coli and purified by nickel agarose beads. Using the purified proteins, fluorescence intensity measurements were performed in the presence of increasing concentrations of SPI-21 and SPI-18. This method analyzes binding by monitoring the changes in the intrinsic fluorescence of the proteins as a consequence of conformational changes. Spt5, Rpb1, and eIF4E display significant intrinsic fluorescence, as expected from the presence of aromatic residues in all of them. […] These findings are consistent with the direct interaction of the identified SPI compounds with the Spt5 and Rpb1 proteins.

[2] = test system: GDF15; assay: GDF15 mRNA levels, HeLa, qPCR; assay type: cell-based, human
Procedure: RNA analysis—Total RNA was extracted using Tri-reagent (Bio-Lab Chemicals) and Direct-Zol™ RNA MiniPrep kit (Zymo Research). Following, cDNA was synthesized from […] of total RNA using a High-Capacity cDNA Reverse Transcription Kit (ABI, Thermo Fisher Scientific). cDNA samples were analyzed by quantitative PCR (qPCR) in a ViiA 7 Real-Time PCR System using Fast qPCRBIO SYBR Green Mix (PCR Biosystems).
GDF15 is a member of the TGF-β superfamily and is associated with regulation of body-weight and food intake in humans and rodents (Emmerson et al., 2017; Hsu et al., 2017; Mullican et al., 2017; Tsai et al., 2018; Yang et al., 2017). […] To test this possibility, GDF15 expression was analyzed following 2 and 24 hours treatment with SPI-21. […] The dramatic elevation of GDF15 was also seen by other identified SPIs (FIG. 4G) and was not limited to HeLa cells but was also detected in other human and mouse cell lines (FIG. 4H). Thus, the utilization of SPIs enables distinguishing between temporary and constitutive Spt5-regulated genes and unveiled a previously unknown but significant role of Spt5 in the control of an important mammalian metabolic pathway via GDF15.

[3] = test system: TNFα-induced IL6 mRNA; assay: Dose-response on TNFα-induced IL6 mRNA levels; assay type: cell-based, human; details: read-out: IC50, inflammatory gene inhibition (TNFα-induced transcription, FIG. 3D)
Procedure: Bars represent the mean of at least 3±SEM independent experiments. The asterisks denote statistical significance differences relative to DMSO+TNFα control according to Student's t tests (typically one tailed, paired): *p<0.05; **p<0.01; ***p<0.005; ****p<0.001. […] Shown are mRNA levels of A20 (normalized to GAPDH) in Hela cells treated with SPI-21 and TNFα and incubated with actinomycin D for the indicated time points, as determined by real-time qPCR. The data points present the mean of 3±SEM independent experiments. […] Shown are levels of mature and immature transcripts in cells incubated for 1 hour with DMSO (vehicle control) or 50 μM of SPI-21 or SPI-18 followed by treatment with TNFα for an additional one hour, as determined by real-time qPCR using primers spanning exons 3 and 4 (mature, black arrows shown in the scheme of G, SEQ ID NOs: 47 and 48) or intron 1 and exon 2 (immature, red arrows shown in the scheme of G, SEQ ID NOs: 49 and 50). […] DMSO (vehicle control), SPI-21 or SPI-18 treated cells were induced by TNFα for the indicated times and the levels of IκBα and β-Tubulin proteins were analyzed by western blot as indicated. […] The occupancy of the A20 gene was analyzed by qPCR using primers from the first (A, SEQ ID NOs: 55 and 56), third (B, SEQ ID NOs: 57 and 58) and last (C, SEQ ID NOs: 59 and 60) exon-intron junctions. […]

T1 sequence (P06730 whole entry): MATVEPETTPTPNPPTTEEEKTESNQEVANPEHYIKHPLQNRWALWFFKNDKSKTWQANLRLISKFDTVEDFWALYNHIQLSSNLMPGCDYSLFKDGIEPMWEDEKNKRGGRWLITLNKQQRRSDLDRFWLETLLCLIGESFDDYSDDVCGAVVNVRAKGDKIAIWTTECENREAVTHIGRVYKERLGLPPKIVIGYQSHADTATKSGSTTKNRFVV

Structure (SMILES) | effect on intrinsic fluorescence of eIF4E [1] | GDF15 up-regulation ([2]; 2 hours treatment) | GDF15 up-regulation ([2]; 24 hours treatment) | IC50 [3] [µM]
COc1ccc(C=CC(=O)c2cc(O)ccc2O)cc1 [SPI-21] | no significant effect | moderately up-regulated | about 100 fold | 
Nc1ccccc1SC(CC(=O)c1cccs1)c1cccs1 (stereo not shown) [SPI-18] |  |  |  | 39
